Source: patent US9308295B2, “Oxygenated demineralized bone matrix for bone growth” (THERACELL, INC., priority 2013, dated 2016)

How the values were obtained:
[1] = system: new bone formation in subcutaneous pouch; assay: Subcutaneous implantation of DBM/PFC slurry in a rat pouch, histology at 28 days; type: in vivo; settings: subcutaneous pocket, PFC with DBM
Protocol: (§1) The induction of bone growth using DBM and an oxygen carrier was previously disclosed in U.S. Publication Application No. 2012/0082704, the entire contents of which are herein incorporated by reference. In order to investigate the properties of a perfluorocarbon (PFC) oxygen carrier and to investigate the effects of DBM and a PFC in two environments having different vascularization, four different PFCs were assayed in combination with DBM. Specifically perfluorohexane, (PFC1), perfluorodecalin (PFC2), perfluorotributylamine (PFC3), and perfluoroperhydrophenanthrene (PFC4) were mixed with DBM (powder or chips) to form a DBM/PFC mixture. In some embodiments, the amount of PFC in the PFC/DBM mixture is in the range of about 32-48 weight %. Sterile saline was then added to provide a slurry with the handling characteristics of wet sand. […] This DBM/PFC slurry mixture was then applied to a subcutaneous pouch and an intramuscular pouch in the rat biceps femoris.
(§2) 0.4 ml of the perfluorocarbon was filtered through a 0.2 micron filter and added to 0.8 g of DBM (powder or chips) at the time of surgery prior to implantation in either a subcutaneous or an intramuscular pouch in the rat biceps femoris. Using a sterile spatula the mixture was gently mixed to ensure complete wetting out of the DBM powder. This was assessed visually. 1.4 ml of sterile saline was then added to the mixture and the resultant slurry was loaded into a 1 ml syringe with its end removed, resulting in a composition including PFC at about 32 to about 48% by weight. The mixture was lightly tamped and using the plunger on the syringe a 0.2 ml implant volume was defined. This was then introduced into the rat pouch. The PFCs included several perfluoroperhydrophenanthrene and perfluorodecalin that have achieved FDA clearance for use in various procedures in humans. In prior studies bone forms readily in DBM implanted in the SD […] model, and thus a human DBM was selected specifically to be from low activity level batches (1965 picograms/gram BMP2; Spec>2300) (Allosource®, Centennial, Colo.). A formulation consisting of DBM+PFC+Saline was prepared at the time of surgery. […] Perfluorohexane, (PFC1), perfluorodecalin (PFC2), and perfluoroperhydrophenanthrene (PFC4) were obtained from a GMP manufacturer and have varying levels of US Device/Drug usage. Accordingly, perfluorohexane, (PFC1), perfluorodecalin (PFC2), and perfluoroperhydrophenanthrene (PFC4) represent material and supplier suitable for use in a commercial product.
(§3) 30 SD Rats (Rattusnorvegicus, CR; NIH-RNU) received bilateral placement of test article (i.e., the DBM and PFC slurry) intramuscularly within the biceps femoris muscle or subcutaneously. Each animal acted as its own control with a saline/DBM implant in the contralateral limb. […]

[2] = system: new bone formation in intramuscular pouch in the rat biceps femoris; assay: Intramuscular implantation of DBM/PFC slurry in rat biceps femoris, histology at 28 days; type: in vivo; settings: DBM/PFC slurry mixture in saline, intramuscular pocket in biceps femoris, control DBM alone in contralateral limb
Protocol: as §1, §2, §3

[3] = in vivo; cited from earlier work

Row | Structure (SMILES) | performance of the PFCs relative to each other in new bone formation [1] | histologic grade of new bone formation as compared to DBM alone [2] | retention in the liver [3]
1 | FC(F)(F)C(F)(F)C(F)(F)C(F)(F)C(F)(F)C(F)(F)F [PFC1, Perfluorohexane] | performed equally | increased histologic grade of new bone formation | 
2 | FC1(F)C(F)(F)C(F)(F)C2(F)C(F)(F)C(F)(F)C(F)(F)C(F)(F)C2(F)C1(F)F (stereo not drawn) [PFC2, Perfluorodecalin] | performed better than PFC1, PFC3, and PFC4 | increased histologic grade of new bone formation | not retained in the liver
3 | FC(F)(F)C(F)(F)C(F)(F)C(F)(F)N(C(F)(F)C(F)(F)C(F)(F)C(F)(F)F)C(F)(F)C(F)(F)C(F)(F)C(F)(F)F [PFC3, Perfluorotributylamine] | performed equally | increased histologic grade of new bone formation | 
4 | FC1(F)C(F)(F)C(F)(F)C2(F)C(F)(C1(F)F)C(F)(F)C(F)(F)C1(F)C(F)(F)C(F)(F)C(F)(F)C(F)(F)C12F (stereo not drawn) [PFC4, Perfluoroperhydrophenanthrene] | performed equally | increased histologic grade of new bone formation | 
